Laboratory results taken from patent US20210128702A1 (priority 2017, published 2021).

What was measured:
Format in all cases: cell-based
4 MM cell lines = system: 4 MM cell lines
[1] = system: Non-MM, bone marrow cells (CD138−)
U266 cells = system: U266 cells
MM.1S cells [2] = system: MM.1S cells
MM.1S cells [3] = system: MM.1S cells; remark: listed apart in the source

## CC(C)C[C@H](NC(=O)[C@H](Cc1ccccc1)NC(=O)c1cnccn1)B(O)O [bortezomib]
4 MM cell lines
  polyUb protein fluorescence (proteotoxicity): increased fluorescence in all cell lines
[1]
  polyUb proteins accumulation: only modest polyUb proteins accumulation

## tunicamycin
U266 cells
  sensitization to Btz-induced apoptosis: sensitizes U266 cells to Btz-induced apoptosis

## C[C@@H]1C[C@@H]([C@H](O)CC2CC(=O)NC(=O)C2)C(=O)[C@@H](C)C1 [cycloheximide]
MM.1S cells [2]
  effect on polyUb: decreases polyUb
MM.1S cells [3]
  effect on bortezomib-induced apoptosis: decreased bortezomib-induced apoptosis
